Key:
PD-1/PD-L1 = molecular target: T1, PD-1/PD-L1 (Homo sapiens, UniProt Q9NZQ7); assay: PD-1/PD-L1 Homogeneous Time-Resolved Fluorescence (HTRF) Binding Assay; conditions: PD-1/PD-L1 HTRF activity; 3 nM PD1, 10 nM PD-L1, 25° C.
T1 construct: Recombinant human PD-L1 protein (19-238) with a Histag at the C-terminus; purchased AcroBiosystems PD1-H5229 (PD-L1); PD1-H5257 (PD-1)
How it was run: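 Human PD-L1 (19-238, His-tag) 10 nM and PD-1 (25-167, Fc-tag) 3 nM preincubated 40 min with inhibitor in PBS pH 7.4, 0.05% Tween-20, 0.1% BSA, 1% DMSO, 25 °C. Eu-anti-human IgG (1 nM) and anti-His-APC (20 nM) added, 60 min, 665/620 nm ratio; IC50 from percent control activity versus log concentration.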

PDL1 = PDL1 Jurkat-NFAT Reporter Assay; format: cell-based; conditions: Homo sapiens; Hep3B-OS8-hPDL1 with Jurkat-NFAT-PD1 cells, 6 hours, luciferase
Description: Example 109. PDL1 Jurkat-NFAT Reporter Assay
Preparation of Hep3B-OS8-hPDL1
1. Hep3B-OS8-hPDL1 cells were cultured in 1640 medium supplemented with 10% fetal bovine serum, 1% penicillin and streptomycin, in which 100 μg/mL G418 and Hygromycin B were also added.
2. Cells were re-suspended with RPMI 1640 medium containing 10% FBS and the cell density was adjusted to 1.25×10^5 cells/mL.
3. Cells were seeded into 96-well flat bottom plate (1.25×10^4 cells/100 μL/well).
b. Compounds solutions preparation
4. Removed the medium from pre-plated Hep3B-OS8-PDL1 cells. Washed once with 200 μL Assay Medium.
5. Prepared the Compounds dilutions in RPMI 1640 medium with 10% FBS according to the Layout.
6. Added compounds into each well in a volume of 50 μL in 9 concentrations ([…])}. Keytruda will be included as positive control at the concentration of 5 μg/mL.
7. Incubated for 20-30 min at 37° C., 5% CO2.
c. Preparation of Jurkat-NFAT-PD1
8. Jurkat-NFAT-PD1 cells were cultured in 1640 medium supplemented with 10% fetal bovine serum, 1% penicillin and streptomycin, in which 1000 μg/mL Hygromycin B and […] puromycin were also added.
9. On the second day of assay, the cells were re-suspended with RPMI 1640 medium containing 10% FBS and the cell density was adjusted to 2.5×10^5 cells/mL.
10. […]

T1 sequence (Q9NZQ7 19-238): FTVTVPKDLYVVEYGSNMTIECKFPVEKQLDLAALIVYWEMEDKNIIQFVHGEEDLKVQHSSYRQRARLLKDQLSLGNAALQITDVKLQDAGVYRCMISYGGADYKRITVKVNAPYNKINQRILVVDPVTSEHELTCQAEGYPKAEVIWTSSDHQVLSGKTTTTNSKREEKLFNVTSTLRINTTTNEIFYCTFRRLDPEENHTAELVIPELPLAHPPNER

- IC50 (PD-1/PD-L1): < 10 nM
- EC50 (PDL1): < 500 nM
Structure (SMILES): O=C1CC[C@@H](Cn2cnn3cc(-c4cccc(-c5cccc(-c6cc7c(=O)n(C[C@@H]8CCC(=O)N8)cnn7c6)c5Cl)c4Cl)cc3c2=O)N1 [Compound 1, 6,6′-(2,2′-dichloro-[1,1′-biphenyl]-3,3′-diyl)bis(3-((5-oxopyrrolidin-2-yl)methyl)pyrrolo[2,1-f][1,2,4]triazin-4(3H)-one)]

Reference: patent US20260248783A1 (ASCLETIS BIOSCIENCE CO., LTD., priority 2021, published 2026)
